Experimental data taken from publication PMC7869897, “Structure–functional relationship of cellular retinoic acid-binding proteins I and II interacting with natural and synthetic ligands” (Acta Crystallographica. Section D, Structural Biology, 2021).

Tests used:
Assay type in all cases: binding
CRABPII [1] = target: T1, CRABPII (Homo sapiens, UniProt P29373); experiment: solvatochromic fluorescence probe, with and without CRABPII; displaced by DC645
T1 construct: gene CRABP2; GST-tagged, tag cleaved with thrombin
T1 sequence (P29373 1-138): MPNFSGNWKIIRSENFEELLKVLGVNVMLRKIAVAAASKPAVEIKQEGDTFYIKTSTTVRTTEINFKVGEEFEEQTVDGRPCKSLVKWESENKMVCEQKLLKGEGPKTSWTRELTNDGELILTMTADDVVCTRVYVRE

CRABPI [2] = target: T2, CRABPI (Homo sapiens, UniProt P29762, L29C); experiment: fluorescent probe displaced by DC645
T2 construct: gene CRABP1; His-tagged, tag cleaved with thrombin

CRABPII [3] = target: T1, CRABPII; experiment: co-crystal structure ([…] Å)
CRABPI [4] = target: T2, CRABPI; experiment: co-crystal structure ([…] Å) and competitive fluorescence displacement of DC271
CRABPII [5] = target: T1, CRABPII; experiment: as above
CRABPI [6] = target: T2, CRABPI; experiment: crystal structure ([…] Å); co-purified fatty acid density modelled as myristic acid

T2 sequence (P29762 whole entry L29C): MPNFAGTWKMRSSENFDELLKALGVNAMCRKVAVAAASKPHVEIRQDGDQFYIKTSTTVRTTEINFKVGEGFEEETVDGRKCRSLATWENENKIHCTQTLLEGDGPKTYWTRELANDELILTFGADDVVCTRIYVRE

CC(C)N1CCC(C)(C)c2cc(C#Cc3ccc(C(=O)O)cc3)ccc21 [DC271]
solvatochromic fluorescence probe, with and without CRABPII; displaced by DC645 (CRABPII [1]): DC271 presents a stark solvatochromic effect when in the presence of CRABPII owing to inclusion into the binding site
fluorescent probe displaced by DC645 (CRABPI [2]): Competitive displacement of DC271 from CRABPI-L29C by DC645 was carried out

CC(C)N1CCC(C)(C)c2ccc(-c3ccc(/C=C/C(=O)O)cc3)cc21 [DC479]
co-crystal structure (1.80 Å) (CRABPII [3]): DC479 occupies the binding site fully, with its carboxylic acid head buried adjacent to the canonical binding triad

CC1(C)CCC(C)(C)c2nc(C#Cc3ccc(C(=O)O)cc3)cnc21 [DC645]
Kd (CRABPI [4]): 1940 ± 110 nM
Kd (CRABPII [5]): 250 ± 60 nM

CCCCCCCCCCCCCC(=O)O [MYR, myristic acid]
crystal structure (1.64 Å); co-purified fatty acid density modelled as myristic (CRABPI [6]): a conserved water molecule hydrogen-bonded to the associated ligand modelled as the 14-carbon myristic acid
